How the values were obtained:
[1] = tested on: Calu-1 cells; test: Anti-proliferation (viability) of NSCLC Calu-1 cells, 3 days (Table 7, FIG. 2B); assay type: cell-based; details: Homo sapiens, 72 h; Calu-1 cells, 3 days, 10-point serial dilution; read-out: GI IC50 in Calu-1
Method in brief: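 Treatment length differs by line: Calu-1 cells receive degrader for 3 days, T47D cells for 6 days, each over a 10-point dilution series. A warhead-modified analogue with unchanged DDB1 binder and linker served as the non-CDK4-binding control.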

[2] = tested on: MCF7 cells; test: Anti-proliferation (viability) of MCF7 cells (Table 7, FIG. 2B); assay type: cell-based; details: Homo sapiens, MCF7, MCF7 cells, 3-6 days, 10-point serial dilution; read-out: GI IC50 in MCF-7

IC50 [1] | IC50 [2] | Compound
≤ 0.01 µM | > 0.1 µM | CC(=O)c1c(C)c2cnc(Nc3ccc(N4CCN(CC(=O)NCC5CC(Nc6nc(NC(C)C)ccc6C(=O)Nc6cn(C)c(C7CC7)n6)C5)CC4)cn3)nc2n(C2CCCC2)c1=O (stereo not drawn) [CPD-277, 2-((3-((2-(4-(6-((6-acetyl-8-cyclopentyl-5-methyl-7-oxo-7,8-dihydropyrido[2,3-d]pyrimidin-2-yl)amino)pyridin-3-yl)piperazin-1-yl)acetamido)methyl)cyclobutyl)amino)-N-(2-cyclopropyl-1-methyl-1H-imidazol-4-yl)-6-(isopropylamino)nicotinamide]
≤ 0.01 µM | > 0.1 µM | CC(=O)c1c(C)c2cnc(Nc3ccc(N4CC5(CN(CC(=O)NC6CC7(C6)CC(Nc6nc(NC(C)C)ccc6C(=O)Nc6ccc(N(C)C)nn6)C7)C5)C4)cn3)nc2n(C2CCCC2)c1=O (stereo not drawn) [CPD-467, 2-((6-(2-(6-(6-((6-acetyl-8-cyclopentyl-5-methyl-7-oxo-7,8-dihydropyrido[2,3-d]pyrimidin-2-yl)amino)pyridin-3-yl)-2,6-diazaspiro[3.3]heptan-2-yl)acetamido)spiro[3.3]heptan-2-yl)amino)-N-(6-(dimethylamino)pyridazin-3-yl)-6-(isopropylamino)nicotinamide]
≥ 0.05 µM | > 0.1 µM | CNc1ccc(C(=O)Nc2ccc(N(C)C)nn2)c(NC2CCC(CNC(=O)CN3CCN(c4ccc(Nc5ncc6c(C)c(C(C)=O)c(=O)n(C7CCCC7)c6n5)nc4)CC3)C2)n1 (stereo not drawn) [CPD-271, 2-((3-((2-(4-(6-((6-acetyl-8-cyclopentyl-5-methyl-7-oxo-7,8-dihydropyrido[2,3-d]pyrimidin-2-yl)amino)pyridin-3-yl)piperazin-1-yl)acetamido)methyl)cyclopentyl)amino)-N-(6-(dimethylamino)pyridazin-3-yl)-6-(methylamino)nicotinamide]
≤ 0.01 µM | < 0.05 µM | CC(=O)c1c(C)c2cnc(Nc3ccc(N4CCN(C5CCN(C(=O)[C@H]6CC[C@H](Nc7nc(NC(C)C)ccc7-c7nc8ccc(N(C)C)nc8[nH]7)CC6)C5)CC4)cn3)nc2n(C2CCCC2)c1=O (relative stereo) [CPD-546, trans-6-acetyl-8-cyclopentyl-2-((5-(4-(1-(4-((3-(5-(dimethylamino)-3H-imidazo[4,5-b]pyridin-2-yl)-6-(isopropylamino)pyridin-2-yl)amino)cyclohexane-1-carbonyl)pyrrolidin-3-yl)piperazin-1-yl)pyridin-2-yl)amino)-5-methylpyrido[2,3-d]pyrimidin-7(8H)-one]
0.01 to 0.05 µM | > 0.1 µM | CC(=O)c1c(C)c2cnc(Nc3ccc(N4CC5(CN(CCC(=O)N6CCC(Nc7nc(NC(C)C)ccc7C(=O)Nc7ccc(N(C)C)nn7)CC6)C5)C4)cn3)nc2n(C2CCCC2)c1=O [CPD-454, 2-((1-(3-(6-(6-((6-acetyl-8-cyclopentyl-5-methyl-7-oxo-7,8-dihydropyrido[2,3-d]pyrimidin-2-yl)amino)pyridin-3-yl)-2,6-diazaspiro[3.3]heptan-2-yl)propanoyl)piperidin-4-yl)amino)-N-(6-(dimethylamino)pyridazin-3-yl)-6-(isopropylamino)nicotinamide]
≤ 0.01 µM | 0.05 to 0.1 µM | CC(=O)c1c(C)c2cnc(Nc3ccc(CN4CCN(C(=O)CN5CC6(CC(Nc7nc(NC(C)C)ccc7C(=O)Nc7ccc(N(C)C)nn7)C6)C5)CC4)cn3)nc2n(C2CCCC2)c1=O [CPD-538, 2-((2-(2-(4-((6-((6-acetyl-8-cyclopentyl-5-methyl-7-oxo-7,8-dihydropyrido[2,3-d]pyrimidin-2-yl)amino)pyridin-3-yl)methyl)piperazin-1-yl)-2-oxoethyl)-2-azaspiro[3.3]heptan-6-yl)amnion)-N-(6-(dimethylamino)pyridazin-3-yl)-6-(isopropylamino)nicotinamide]
0.01 to 0.05 µM | > 0.1 µM | CC(=O)c1c(C)c2cnc(Nc3ccc(N4CCN(CCC(=O)N5CCC(Nc6nc(NC(C)C)ccc6C(=O)Nc6cn(C)c(C7CC7)n6)C5)CC4)cn3)nc2n(C2CCCC2)c1=O (stereo not drawn) [CPD-274, 2-((1-(3-(4-(6-((6-acetyl-8-cyclopentyl-5-methyl-7-oxo-7,8-dihydropyrido[2,3-d]pyrimidin-2-yl)amino)pyridin-3-yl)piperazin-1-yl)propanoyl)pyrrolidin-3-yl)amino)-N-(2-cyclopropyl-1-methyl-1H-imidazol-4-yl)-6-(isopropylamino)nicotinamide]
≤ 0.01 µM | < 0.05 µM | CC(=O)c1c(C)c2cnc(Nc3ccc(N4CCN(CC(=O)NC5CC6(C5)CC(Nc5nc(NC(C)C)ccc5C(=O)Nc5cn7c(n5)CCC7)C6)CC4)cn3)nc2n(C2CCCC2)c1=O (stereo not drawn) [CPD-566, 2-((6-(2-(4-(6-((6-acetyl-8-cyclopentyl-5-methyl-7-oxo-7,8-dihydropyrido[2,3-d]pyrimidin-2-yl)amino)pyridin-3-yl)piperazin-1-yl)acetamido)spiro[3.3]heptan-2-yl)amino)-N-(6,7-dihydro-5H-pyrrolo[1,2-a]imidazol-2-yl)-6-(isopropylamino)nicotinamide]
0.01 to 0.05 µM | > 0.1 µM | CC(=O)c1c(C)c2cnc(Nc3ccc(N4CC5(CN(CC(=O)NCC6CC(Nc7nc(NC(C)C)ccc7C(=O)Nc7ccc(N(C)C)nn7)C6)C5)C4)cn3)nc2n(C2CCCC2)c1=O (stereo not drawn) [CPD-468, 2-((3-((2-(6-(6-((6-acetyl-8-cyclopentyl-5-methyl-7-oxo-7,8-dihydropyrido[2,3-d]pyrimidin-2-yl)amino)pyridin-3-yl)-2,6-diazaspiro[3.3]heptan-2-yl)acetamido)methyl)cyclobutyl)amino)-N-(6-(dimethylamino)pyridazin-3-yl)-6-(isopropylamino)nicotinamide]
≤ 0.01 µM | < 0.05 µM | CC(=O)c1c(C)c2cnc(Nc3ccc(N4CCN(C(C)CC(=O)NC56CC(Nc7nc(NC(C)C)ccc7C(=O)Nc7ccc(N(C)C)nn7)(C5)C6)CC4)cn3)nc2n(C2CCCC2)c1=O (stereo not drawn) [CPD-504, 2-((3-(3-(4-(6-((6-acetyl-8-cyclopentyl-5-methyl-7-oxo-7,8-dihydropyrido[2,3-d]pyrimidin-2-yl)amino)pyridin-3-yl)piperazin-1-yl)butanamido)bicyclo[1.1.1]pentan-1-yl)amino)-N-(6-(dimethylamino)pyridazin-3-yl)-6-(isopropylamino)nicotinamide]
≤ 0.01 µM | < 0.05 µM | CCc1ccc(C(=O)Nc2ccc(N(C)C)nn2)c(N[C@H]2CC[C@H](C(=O)N3CCC(N4CCN(c5ccc(Nc6ncc7c(C)c(C(C)=O)c(=O)n(C8CCCC8)c7n6)nc5)CC4)C3)CC2)c1 (stereo partly drawn) [CPD-526, 2-((trans-4-(3-(4-(6-((6-acetyl-8-cyclopentyl-5-methyl-7-oxo-7,8-dihydropyrido[2,3-d]pyrimidin-2-yl)amino)pyridin-3-yl)piperazin-1-yl)pyrrolidine-1-carbonyl)cyclohexyl)amino)-N-(6-(dimethylamino)pyridazin-3-yl)-4-ethylbenzamide]
≤ 0.01 µM | > 0.1 µM | CC(=O)c1c(C)c2cnc(Nc3ccc(N4CCC(N5CCC(C(=O)NC6CC(Nc7nc(NC(C)C)ccc7C(=O)Nc7ccc(N(C)C)nn7)C6)C5)CC4)cn3)nc2n(C2CCCC2)c1=O (stereo not drawn) [CPD-460, 2-((3-(1-(1-(6-((6-acetyl-8-cyclopentyl-5-methyl-7-oxo-7,8-dihydropyrido[2,3-d]pyrimidin-2-yl)amino)pyridin-3-yl)piperidin-4-yl)pyrrolidine-3-carboxamido)cyclobutyl)amino)-N-(6-(dimethylamino)pyridazin-3-yl)-6-(isopropylamino)nicotinamide]
